Results reported in patent US20100009970A1, “COMPOSITIONS AND METHODS FOR TREATMENT OF VIRAL DISEASES” (Combinatorx (Singapore) Pte. Ltd., priority 2008, published 2010).

Columns and labels:
[1] = in vitro; details: human, CC50 (uM) [SG]
[2] = tested on: Huh7 cells expressing a subgenomic RNA replicon of Con1 (genotype 1b) sequence origin; test: microbe, parasite or virus in culture; details: Hepatitis C virus; for IC90: Huh-7; for IC50: Huh-7, read-out: IC50 (uM) [SG]; for Emax: Huh-7, read-out: Max Effect@CC30 (inhibition)

| SMILES | CC50 [1] [µM] | IC90 [2] [µM] | IC50 [2] [µM] | Emax [2] [%] |
| --- | --- | --- | --- | --- |
| CSc1ccc(Oc2ccc(S(N)(=O)=O)cc2CNCCO)cc1C [Compound 1, 3-((2-hydroxyethylamino)methyl)-4-(3-methyl-4-(methylthio)phenoxy)benzenesulfonamide] | > 50 | 15 | 4.31 |  |
| CN[C@H]1CC[C@@H](c2ccc(Cl)c(Cl)c2)c2ccc(CSC)cc21 [Sertraline A-Ring Methylsulfide, (1S,4S)-4-(3,4-dichlorophenyl)-N-methyl-7-(methylthiomethyl)-1,2,3,4-tetrahydronaphthalen-1-amine] | 6.18 |  | 4.18 | 14.8 |
| CSc1ccc(Oc2ccc(S(N)(=O)=O)cc2CN(C)CCCN(C)C)cc1C [Compound 94, 3-(((3-(dimethylamino)propyl)(methyl)amino)methyl)-4-(3-methyl-4-(methylthio)phenoxy)benzenesulfonamide] | 15 | 7.38 | 3.26 |  |
| COc1ccc(Oc2ccc(Br)cc2CN(C)C)cc1 [Compound 42, (5-bromo-2-(4-methoxyphenoxy)phenyl)-N,N-dimethylmethanamine] | > 50 |  | 30.8 | 51.7 |
| CSc1ccc(Oc2ccc(S(N)(=O)=O)cc2CN2CCN(c3ccc(Cl)cc3)CC2)cc1C [Compound 92, 3-((4-(4-chlorophenyl)piperazin-1-yl)methyl)-4-(3-methyl-4-(methylthio)phenoxy)benzenesulfonamide] | 44.4 |  | 30 |  |
| CC(=O)Nc1ccc2c(c1)C(C(C)C)CCC2c1ccc(Cl)c(Cl)c1 (stereo not drawn) [N-(5-(3,4-dichlorophenyl)-8-isopropyl-5,6,7,8-tetrahydronaphthalen-2-yl)acetamide] | > 50 | 37.7 | 15.8 |  |
| CSc1ccc(Oc2ccc(S(N)(=O)=O)cc2CN(C)CCO)cc1C [Compound 2, 3-(((2-hydroxyethyl)(methyl)amino)methyl)-4-(3-methyl-4-(methylthio)phenoxy)benzenesulfonamide] | > 50 | 20.1 | 5.58 |  |
| CSc1ccc(Oc2ccc(S(N)(=O)=O)cc2CN2CCN(C)CC2)cc1C [Compound 63, 4-(3-methyl-4-(methylthio)phenoxy)-3-((4-methylpiperazine-1-yl)methyl)benzenesulfonamide] | > 50 | 10.5 | 4.82 |  |
| CSc1ccc(Oc2ccc(S(N)(=O)=O)cc2CN2CCN(CCO)CC2)cc1C [Compound 95, 3-((4-(2-hydroxyethyl)piperazin-1-yl)methyl)-4-(3-methyl-4-(methylthio)phenoxy)benzenesulfonamide] | > 50 | 17 | 6.5 |  |
| CC(=O)N(C)c1ccc2c(c1)[C@@H](N(C)C)CC[C@H]2c1ccc(Cl)c(Cl)c1 | 14.6 |  | 3.79 | 91.7 |
| CSc1ccc(Oc2ccc(S(N)(=O)=O)cc2CN2CC[C@H](N(C)C)C2)cc1C [Compound 88, (S)-3-((3-(dimethylamino)pyrrolidin-1-yl)methyl)-4-(3-methyl-4-(methylthio)phenoxy)benzenesulfonamide] | 39.4 | 13.2 | 4.15 |  |
| CSc1ccc(Oc2ccc([N+](=O)[O-])cc2CN(C)C)cc1C [Compound 54, N,N-dimethyl-1-(2-(3-methyl-4-(methylthio)phenoxy)-5-nitrophenyl)methanamine] | > 50 | 7.07 | 6.18 | 97.9 |
| CSc1ccc(Oc2ccc(S(=O)(=O)Nc3ccccc3)cc2CN(C)C)cc1C [Compound 49, 3-((dimethylamino)methyl)-4-(3-methyl-4-(methylthio)phenoxy)-N-phenylbenzenesulfonamide] | 10.8 |  | 6.53 | 15.3 |
| CCCCNS(=O)(=O)c1ccc(Oc2ccc(SC)c(C)c2)c(CN(C)C)c1 [Compound 12, N-butyl-3-((dimethylamino)methyl)-4-(3-methyl-4-(methylthio)phenoxy)benzenesulfonamide] | 18.4 |  | 13.4 |  |
| CSc1ccc(Oc2cc(C#N)ccc2CN(C)C)cc1C [Compound 64, 4-((dimethylamino)methyl)-3-(3-methyl-4-(methylthio)phenoxy)benzonitrile] | > 50 |  | 22.5 |  |
| CC(=O)Nc1ccc2c(c1)[C@@H](N(C)CCO)CC[C@H]2c1ccc(Cl)c(Cl)c1 [N-((5S,8S)-5-(3,4-dichlorophenyl)-8-((2-hydroxyethyl)(methyl)amino)-5,6,7,8-tetrahydronaphthalen-2-yl)acetamide] | 44.9 |  | 13.2 |  |
